# Assay results as given in article PMC6687188, “Novel lactate dehydrogenase inhibitors with in vivo efficacy against Cryptosporidium parvum” (PLoS Pathogens, 2019).
# Target: recombinant CpLDH protein (Cryptosporidium parvum, UniProt Q9GT92, F198L/K295E/R251K)
row,Compound,MEAN CpLDH INHIBITION (%)
1,Cc1ccc(NC(=S)C#N)c(C)c1 [NSC369318],-37.61
2,COc1ccc2c(c1)CCc1c-2n[nH]c1-c1[nH]nc2c1CCc1cc(OC)ccc1-2 [NSC371846],-16.04
3,CN1C(Cl)=NS(=O)(=O)c2ccccc21 [NSC373853],-15.72
4,Cc1ccc(NC(=O)c2cc3ccccc3c(N=Nc3ccccc3O)c2O)c(C)c1 [NSC374898],-39.33
5,CC1(C)CCC[C@]2(C)C3=C(CC[C@@H]12)C(=O)OC3 [NSC375294],-39.63
6,Nc1ccn([C@@H]2C=C(CO)[C@@H](O)[C@H]2O)c(=O)n1 [NSC375575],-28.69
7,COc1cc2oc3cc(=O)cc4oc(-c5ccccc5)cc(c2c2c1CCC(c1ccccc1)O2)c43 (stereo not shown) [NSC376248],-15.03
8,C/C(=N\NC(=S)N1CCN(C2CCCCCC2)CC1)c1ccccn1 [NSC376265],-34.26
9,CC1(C)NC(=O)N(CCCCCCN2C(=O)NC(C)(C)C2=O)C1=O [NSC376791],-26.30
10,N#CC(=S)Nc1ccc(Cl)c(Cl)c1 [NSC379531],-50.91
11,C=C(CN(C)C)C(=O)c1ccccc1Cl.Cl [NSC382007],-43.42
12,Br.CCN(CC)CC(C)(C)C(=O)/C=C/c1ccc(C)cc1 [NSC382766],-40.98
13,O=C1C=Cc2ncccc2C1=O [NSC400944],-2.52
14,CC1=C2C(=CC(C)(C)[C@@H]2O)C(=O)[C@](C)(O)C12CC2 [NSC400978],-79.24
15,COc1cc([C@@H]2c3cc4c(cc3C[C@H]3COC(=O)[C@@H]32)OCO4)cc(OC)c1OC [NSC403148],-8.59
16,C[C@@H]1CC[C@H]2C(C)(C)[C@H]3C[C@@]12CC[C@@]3(C)O [NSC403883],-51.63
17,N#CC(=C1C=CC(=NO)C=C1)c1ccc(Cl)cc1 [NSC405158],-30.77
18,OCC1OC(n2cnc3c(=S)nc[nH]c32)C(O)C1O (stereo not shown) [NSC406021],-17.89
19,CC(=O)OC1CC(n2cc(F)c(=O)[nH]c2=O)OC1CO (stereo not shown) [NSC407335],-11.80
20,C[C@]12CC[C@H](O)C[C@H]1CC[C@@H]1[C@@H]2CC[C@]2(C)[C@@H](C3=CC(=O)OC3)CC[C@]12O [NSC407806],-16.59
21,Cc1cc(O)c2c(c1)C(=O)c1cc(O)cc(O)c1C2=O [NSC408120],-6.79
22,CC(C)c1ccc2nc3ccc(C(=O)NCCN(C)C)cn3c(=O)c2c1 [NSC600305],-31.37
23,CCCCCn1cc2c3c(cccc31)C1C=C(C)CN(C)[C@@H]1C2.Cc1ccc(C(=O)OC(C(=O)O)C(OC(=O)c2ccc(C)cc2)C(=O)O)cc1 (stereo not shown) [NSC600681],-36.35
24,CCN(CC)CCOc1ccccc1/C=C/c1noc2ccccc12.Cl [NSC601101],-6.25
25,Cc1nc2c(nc1C)C(=O)c1ccccc1C2=O [NSC602617],-40.33

row,Compound,MEAN CpLDH INHIBITION (%)
1,CN(C)c1cccc(F)c1C(=O)NC(=O)Nc1ccc(Cl)cc1 [NSC603108],-29.93
2,Cc1ccc(S(=O)(=O)[O-])cc1.Cc1ccc(S(=O)(=O)[O-])cc1.Cn1c(-c2ccc(/C=C/C=N/NC(=O)c3ccc(C(=O)N/N=C/C=C/c4ccc(-c5c[n+]6ccccc6n5C)cc4)cc3)cc2)c[n+]2ccccc12 [NSC603169],-164.45
3,C[Si](C)(CN)CN.[Cl][Pt][Cl] [NSC603577],-0.38
4,Cc1ccc(S(=O)(=O)NC(=O)NC2=NC(C)(C)N(c3ccc(Cl)c(Cl)c3)C(N)=N2)cc1 [NSC603624],-12.73
5,O=c1[nH]c2ccc(O)cc2o1 [NSC603719],-2.52
6,C[C@H](CSC(=O)c1ccccc1)C(=O)N1c2ccccc2C[C@H]1C(=O)O [NSC604535],-8.81
7,Cl.Nc1ccc2cc3ccc(N)cc3nc2c1 [NSC605756],-35.77
8,CC(C)(C)OC(=O)NC(Cc1ccccc1)C(=O)OCN1C(=O)C2C3C=CC(C2C1=O)C1C2C(=O)N(COC(=O)C(Cc4ccccc4)NC(=O)OC(C)(C)C)C(=O)C2C31 (stereo not shown) [NSC607316],-7.22
9,O=[N+]([O-])c1ccc(-c2cn(-c3ccc(Cl)cc3)cn2)cc1 [NSC610744],-19.53
10,COc1cc(C(O)CCBr)c(OC)cc1C (stereo not shown) [NSC611750],-11.25
11,CC(=O)Oc1ccc(C(c2ccc(OC(C)=O)cc2)c2ccccn2)cc1 [NSC614826],-3.85
12,CC1(C)C(O)OC(O)C1(C)C (stereo not shown) [NSC614928],-7.87
13,C=C(C#N)C(=O)OCC(CC)CC.C=C(C#N)C(=O)OCC(CC)CC.CS(C)=O.CS(C)=O.Nc1c(N=Nc2ccc(-c3ccc(N=Nc4cc(S(=O)(=O)[O-])c5ccccc5c4N)cc3)cc2)cc(S(=O)(=O)[O-])c2ccccc12.[Pt+2] [NSC615593],-2.09
14,OC(CBr)C(O)C(O)C(O)CBr (stereo not shown) [NSC616232],-42.37
15,CC(C)(C)[Si](C)(C)OCC1CCC(n2cnc3c(N)ncnc32)O1 (stereo not shown) [NSC616355],-24.91
16,CCCCCC/C=C\CCCCCCCCCc1cccc(OC)c1O [NSC617540],-6.79
17,COc1ccc2c(c1)C=C([N+](=O)[O-])C(C1OC(C)(C)OC1C1COC(C)(C)O1)O2 (stereo not shown) [NSC618261],-65.69
18,O=C1C(Br)=C(Br)C(=O)c2ccccc21 [NSC618332],-7.70
19,C/C=C(\CCC1NCCc2c1[nH]c1ccccc21)[Si](C)(C)C (stereo not shown) [NSC619165],-14.52
20,O=C([O-])c1cc(I)cc(I)c1[OH2+].O=C([O-])c1cc(I)cc(I)c1[OH2+].[Mn+2] [NSC619907],-115.80
21,COC(=O)C[S+]([O-])c1ccccc1 (stereo not shown) [NSC620050],-37.27
22,O=C1CC[C@H](NC(=O)Cc2ccccc2)C(=O)N1 [NSC620261],-132.95
23,N#CCCN(CCC#N)c1ccc(C=Nc2ccc(F)cc2)cc1 [NSC620277],-46.45
24,CCOC(=O)c1ccc(N=Cc2ccc(N(CCC#N)CCC#N)cc2)cc1 [NSC620279],-17.13
25,Cc1c(N=Cc2ccc(N(CCC#N)CCC#N)cc2)c(=O)n(-c2ccccc2)n1C [NSC620280],-51.47

row,Compound,MEAN CpLDH INHIBITION (%)
1,C=C1C(=O)C23CC[C@@H]4C(C)(C(=O)OC)CCCC4(C)[C@@H]2CCC1(O)C3 (stereo partly shown) [NSC620358],-24.86
2,CC1=NN(C(=O)c2ccncc2)C(=O)C1N=Nc1ccc(F)cc1 (stereo not shown) [NSC621094],-33.52
3,Cc1cc2c(cc1C)[n+](=O)c(C(=O)/C=C/c1ccccc1[N+](=O)[O-])c(C)n2[O-] [NSC621486],-0.42
4,C[N+](C)(C)CC1CCCC1=O.[I-] (stereo not shown) [NSC621889],-0.31
5,[Mo] [NSC622116],-10.74
6,[Mo] [NSC622124],0.01
7,COc1ccc(-n2/c(=N/C(=S)N(C)C)ss/c2=N\C(=S)N(C)C)cc1 [NSC622586],-55.77
8,CN(C)C(=S)/N=c1\ss/c(=N\C(=S)N(C)C)n1-c1ccc2c(c1)OCO2 [NSC622589],-7.95
9,Br.CN(C)c1nc(=NCc2ccco2)ss1 [NSC622608],-22.44
10,CCOC(=O)CCc1c(C)c2c(O)cc(O)cc2oc1=O [NSC622616],-39.56
11,O=[N+]([O-])c1cc(C(F)(F)F)cc([N+](=O)[O-])c1CCl [NSC622627],-26.97
12,NC(=O)c1c([N+](=O)[O-])cc(C(F)(F)F)cc1[N+](=O)[O-] [NSC622640],-12.99
13,CCOC(=O)/N=C(\N)SCc1ccccc1 [NSC622684],-0.38
14,CC1=C/C(=C2/N=C(N(C)C)SS2)C(C)=N1.[O-][Cl+3]([O-])([O-])O [NSC622690],-0.50
15,Cn1ncc2cc3c(Nc4ccc(Cl)cc4)cccc3nc21 [NSC622732],-35.66
16,Cc1cc(Cl)ccc1N1C(=O)C(=O)C(c2nc3ccccc3o2)C(=O)C1=O [NSC623051],-30.82
17,COc1ccc2nc(NC(=O)C(=O)CC(=O)c3ccc(Cl)cc3)sc2c1 [NSC623059],-31.35
18,O=C(Nc1ccccc1-c1nn(C(=S)Nc2ccccc2)c(=S)n(C(=S)Nc2ccccc2)c1=O)C(F)(F)F [NSC623093],-49.57
19,CN(C)c1ccc(/C=c2/sc3nc(=O)c(-c4ccccc4NC(=O)C(F)(F)F)nn3c2=O)cc1 [NSC623095],-151.18
20,CC(=O)OCc1c2ccccc2c(C)c2c1cc(F)c1ccccc12 [NSC623135],-28.47
21,COC(=O)c1ccccc1OCc1cc(=O)oc2ccc(C)cc12 [NSC623637],-23.29
22,CCOC(=O)C1=C(O)CSC1=Nc1ccc(N=C2SCC(O)=C2C(=O)OCC)cc1 [NSC623746],-45.42
23,Cc1ccc(S(=O)(=O)SC/C=C/CSS(=O)(=O)c2ccc(C)cc2)cc1 [NSC624158],-8.09
